Measurements as given in patent US10227331B2 (priority 2015, dated 2019).
pIC50: −log10 of the molar value.

Tests used:
[1] = test system: P. aeruginosa expressing IMP-1, efflux− (MB9799); experiment: Efflux: concentration of MBL inhibitor which restores susceptibility to imipenem; format: cell-based, Pseudomonas aeruginosa; details: imipenem at 2 μg/mL, in the presence of a class A, C, D serine β-lactamase inhibitor closely related to relebactam
Source text: (§1) The strain background is Pseudomonas aeruginosa PAO1.

[2] = test system: Escherichia coli expressing NDM-1 (CLB30005, CLB30016); format: cell-based; details: with imipenem 1 μg/ml; 95% inhibition of bacterial growth
Method in brief: (§2)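 Colonies from overnight 35 °C blood-agar cultures were suspended in saline, diluted 1:100 into 1.1× CAMHB and exposed to test compound with or without imipenem at 1 μg/ml. After 22–24 h at 35 °C, absorbance was read to find the concentration restoring imipenem susceptibility.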

[3] = test system: Klebsiella pneumoniae expressing VIM-1 (IHMA599644); format: cell-based; details: with imipenem 1 μg/ml; 95% inhibition of bacterial growth
Method in brief: as §2

[4] = test system: Serratia marcescens expressing IMP-1 (CL5741); format: cell-based; details: with imipenem 1 μg/ml; 95% inhibition of bacterial growth
Method in brief: as §2

[5] = test system: P. aeruginosa expressing IMP-1, efflux+ (MB9798); format: cell-based, Pseudomonas aeruginosa; details: for P. aeruginosa expressing IMP-1, efflux+ (MB9798) MITC95: imipenem at 2 μg/mL, in the presence of a class A, C, D serine β-lactamase inhibitor closely related to relebactam; for Efflux ratio: ratio MITC95 PA_9798/MITC95 PA_9799
Source text: as §1

VIM-1 = VIM-1 (Pseudomonas aeruginosa (strain ATCC 15692 / DSM 22644 / CIP 104116 / JCM 14847 / LMG 12228 / 1C / PRS 101 / PAO1), UniProt A0A0F7KYQ8); experiment: biochemical; details: CCF2-FA substrate, 2 hours at 25° C
Method in brief: (§3)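 Inhibitor was mixed with the metallo-β-lactamase and CCF2-FA. After 2 hours at 25° C, fluorescence of the coumarin–fluorescein cephalosporin substrate was read. IC50 was calculated with a 4-parameter fit.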

IMP-1 = IMP-1 (Serratia marcescens, UniProt P52699); experiment: biochemical; format: biochemical; details: CCF2-FA substrate, 2 hours at 25° C; read-out: IMP-1 IC50
IMP-1, sequence (P52699 whole entry, looked up, species assumed): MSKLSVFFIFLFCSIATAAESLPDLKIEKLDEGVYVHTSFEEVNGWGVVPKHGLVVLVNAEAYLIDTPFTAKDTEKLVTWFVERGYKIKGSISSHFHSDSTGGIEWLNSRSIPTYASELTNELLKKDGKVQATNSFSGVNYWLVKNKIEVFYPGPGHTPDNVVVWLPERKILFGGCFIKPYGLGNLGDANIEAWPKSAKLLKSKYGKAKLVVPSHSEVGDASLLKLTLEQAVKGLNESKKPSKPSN
Method in brief: as §3

NDM-1 = NDM-1 (Klebsiella pneumoniae, UniProt C7C422); experiment: biochemical; format: biochemical; details: CCF2-FA substrate, 2 hours at 25° C; read-out: NDM-1 IC50
NDM-1, sequence (C7C422 whole entry, looked up, species assumed): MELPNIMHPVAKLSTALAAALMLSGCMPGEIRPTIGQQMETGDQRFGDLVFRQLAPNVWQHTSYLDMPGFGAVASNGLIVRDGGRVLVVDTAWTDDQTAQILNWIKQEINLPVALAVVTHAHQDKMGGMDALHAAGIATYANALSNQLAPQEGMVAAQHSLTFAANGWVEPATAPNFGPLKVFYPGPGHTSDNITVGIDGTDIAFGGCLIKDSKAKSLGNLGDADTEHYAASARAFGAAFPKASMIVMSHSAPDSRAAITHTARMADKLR
Method in brief: as §3

| Compound | P. aeruginosa expressing IMP-1, efflux− (MB9799) MITC95 [1] [µM] | Escherichia coli expressing NDM-1 (CLB30016) MITC95 [2] [µM] | Klebsiella pneumoniae expressing VIM-1 (IHMA599644) MITC95 [3] [µM] | Serratia marcescens expressing IMP-1 (CL5741) MITC95 [4] [µM] | P. aeruginosa expressing IMP-1, efflux+ (MB9798) MITC95 [5] [µM] | Efflux ratio [5] | pIC50 (VIM-1) | pIC50 (IMP-1) | pIC50 (NDM-1) |
| --- | --- | --- | --- | --- | --- | --- | --- | --- | --- |
| NS(=O)(=O)c1c(S(=O)(=O)C2CNC2)ccc(-c2cccc3[nH]ncc23)c1-c1nnn[nH]1.O=C(O)C(F)(F)F [Example 100, 3-((4-(1H-indazol-4-yl)-2-sulfamoyl-3-(1H-tetrazol-5-yl)phenyl)sulfonyl)azetidin-1-ium 2,2,2-trifluoroacetate] | 1.563 | 6.25 | 3.125 | 3.125 | 6.25 | 4.00 | 9.48 | 8.79 | 9.45 |
| NS(=O)(=O)c1c(S(=O)(=O)C2CNC2)ccc(-c2cnc3ccoc3c2)c1-c1nnn[nH]1.O=C(O)C(F)(F)F [Example 101, 3-((4-(furo[3,2-b]pyridin-6-yl)-2-sulfamoyl-3-(1H-tetrazol-5-yl)phenyl)sulfonyl)azetidin-1-ium 2,2,2-trifluoroacetate] | 1.563 | 3.125 | 6.25 | 3.125 | 12.5 | 8.00 | 9.40 | 8.83 | 9.04 |
| NS(=O)(=O)c1c(S(=O)(=O)C2CNC2)ccc(-c2cccc3ccnn23)c1-c1nnn[nH]1.O=C(O)C(F)(F)F [Example 102, 3-((4-(pyrazolo[1,5-a]pyridin-7-yl)-2-sulfamoyl-3-(1H-tetrazol-5-yl)phenyl)sulfonyl)azetidin-1-ium 2,2,2-trifluoroacetate] | 1.563 | 3.125 | 3.125 | 3.125 | 3.125 | 2.00 | 9.34 | 9.04 | 9.39 |
| Cn1cnc2cc(-c3ccc(S(=O)(=O)C4CNC4)c(S(N)(=O)=O)c3-c3nnn[nH]3)cnc21.O=C(O)C(F)(F)F [Example 103, 3-((4-(3-methyl-3H-imidazo[4,5-b]pyridin-6-yl)-2-sulfamoyl-3-(1H-tetrazol-5-yl)phenyl)sulfonyl)azetidin-1-ium 2,2,2-trifluoroacetate] | 1.563 | 12.5 | 6.25 | 3.125 | 12.5 | 8.00 | 9.24 | 8.73 | 9.02 |
| NS(=O)(=O)c1c(S(=O)(=O)C2CNC2)ccc(-c2ccc3ncnn3c2)c1-c1nnn[nH]1.O=C(O)C(F)(F)F [Example 104, 3-((4-([1,2,4]triazolo[1,5-a]pyridin-6-yl)-2-sulfamoyl-3-(1H-tetrazol-5-yl)phenyl)sulfonyl)azetidin-1-ium 2,2,2-trifluoroacetate] | 1.563 | 3.125 | 3.125 | 6.25 | 12.5 | 8.00 | 9.16 | 8.45 | 8.68 |
| NS(=O)(=O)c1c(S(=O)(=O)C2CNC2)ccc(-c2cncnc2)c1-c1nnn[nH]1.O=C(O)C(F)(F)F [Example 110, 3-((4-(pyrimidin-5-yl)-2-sulfamoyl-3-(1H-tetrazol-5-yl)phenyl)sulfonyl)azetidin-1-ium 2,2,2-trifluoroacetate] | 1.563 | 1.563 | 3.125 | 1.563 | 25 | 15.99 | 8.46 | 7.88 | 8.32 |
| Nc1cncc(-c2ccc(S(=O)(=O)C3CNC3)c(S(N)(=O)=O)c2-c2nnn[nH]2)c1.O=C(O)C(F)(F)F [Example 112, 3-((4-(5-aminopyridin-3-yl)-2-sulfamoyl-3-(1H-tetrazol-5-yl)phenyl)sulfonyl)azetidin-1-ium 2,2,2-trifluoroacetate] | 3.125 | 3.125 | 6.25 | 3.125 | 12.5 | 4.00 | 8.75 | 8.06 | 8.60 |
| NS(=O)(=O)c1c(S(=O)(=O)C2CNC2)ccc(-c2cccc3c2CNC3=O)c1-c1nnn[nH]1.O=C(O)C(F)(F)F [Example 113, 3-((4-(1-oxoisoindolin-4-yl)-2-sulfamoyl-3-(1H-tetrazol-5-yl)phenyl)sulfonyl)azetidin-1-ium 2,2,2-trifluoroacetate] | 1.563 | 1.563 | 6.25 | 3.125 | 12.5 | 8.00 | 9.78 | 8.22 | 9.86 |
| NS(=O)(=O)c1c(S(=O)(=O)C2CNC2)ccc(-c2ccc3scnc3c2)c1-c1nnn[nH]1.O=C(O)C(F)(F)F [Example 114, 3-((4-(benzo[d]thiazol-5-yl)-2-sulfamoyl-3-(1H-tetrazol-5-yl)phenyl)sulfonyl)azetidin-1-ium 2,2,2-trifluoroacetate] | 0.7813 | 0.3906 | 1.563 | 0.7813 | 6.25 | 8.00 | 9.94 | 9.58 | 9.82 |
| NS(=O)(=O)c1c(S(=O)(=O)C2CNC2)ccc(-c2ccc3ncccc3c2)c1-c1nnn[nH]1.O=C(O)C(F)(F)F [Example 115, 3-((4-(quinolin-6-yl)-2-sulfamoyl-3-(1H-tetrazol-5-yl)phenyl)sulfonyl)azetidin-1-ium 2,2,2-trifluoroacetate] | 1.563 | 3.125 | 3.125 | 3.125 | 12.5 | 8.00 | 9.56 | 9.10 | 9.63 |
